According to ChEMBL document CHEMBL1773059, “NMS-P937, a 4,5-dihydro-1H-pyrazolo[4,3-h]quinazoline derivative as potent and selective Polo-like kinase 1 inhibitor” (Bioorg Med Chem Lett, 2011):
Values after ≈ are worked out from the molar mass of the structure shown.

Experiments:
[1] = Inhibition of CK2 assessed as [33P]gamma-ATP incorporation into substrate after 60 mins by gamma counting
[2] = target: Epidermal growth factor receptor (Homo sapiens, UniProt P04626+P00533+Q15303+P21860); assay: Inhibition of EGFR1 assessed as [33P]gamma-ATP incorporation into substrate after 60 mins by gamma counting; assay type: protein assay
[3] = Inhibition of PDGFR assessed as [33P]gamma-ATP incorporation into substrate after 60 mins by gamma counting
HCT-116 [4] = assay: Antitumor activity against human HCT116 cells xenografted in CD1 nu/nu mouse assessed as tumor growth inhibition at 90 mg/kg, po once daily administered on days 1 to 2 daily in weekly scheduling for 4 cycles measured on day 36; conditions: HCT-116, po, 864 h, read-out: TGI
Caco-2 = assay: Apparent permeability of the compound across human Caco2 cells; assay type: ADME, cell-based
[5] = target: Tyrosine-protein kinase SYK (Homo sapiens, UniProt P43405); assay: Inhibition of Syk assessed as [33P]gamma-ATP incorporation into substrate after 60 mins by gamma counting
[6] = Solubility of compound at pH 7; assay type: physicochemical; conditions: buffer
Activated CDC42 kinase 1 = Activated CDC42 kinase 1 (Homo sapiens, UniProt Q07912); assay: Inhibition of ACK1 assessed as [33P]gamma-ATP incorporation into substrate after 60 mins by gamma counting
Chain of Activated CDC42 kinase 1 (Q07912 whole entry): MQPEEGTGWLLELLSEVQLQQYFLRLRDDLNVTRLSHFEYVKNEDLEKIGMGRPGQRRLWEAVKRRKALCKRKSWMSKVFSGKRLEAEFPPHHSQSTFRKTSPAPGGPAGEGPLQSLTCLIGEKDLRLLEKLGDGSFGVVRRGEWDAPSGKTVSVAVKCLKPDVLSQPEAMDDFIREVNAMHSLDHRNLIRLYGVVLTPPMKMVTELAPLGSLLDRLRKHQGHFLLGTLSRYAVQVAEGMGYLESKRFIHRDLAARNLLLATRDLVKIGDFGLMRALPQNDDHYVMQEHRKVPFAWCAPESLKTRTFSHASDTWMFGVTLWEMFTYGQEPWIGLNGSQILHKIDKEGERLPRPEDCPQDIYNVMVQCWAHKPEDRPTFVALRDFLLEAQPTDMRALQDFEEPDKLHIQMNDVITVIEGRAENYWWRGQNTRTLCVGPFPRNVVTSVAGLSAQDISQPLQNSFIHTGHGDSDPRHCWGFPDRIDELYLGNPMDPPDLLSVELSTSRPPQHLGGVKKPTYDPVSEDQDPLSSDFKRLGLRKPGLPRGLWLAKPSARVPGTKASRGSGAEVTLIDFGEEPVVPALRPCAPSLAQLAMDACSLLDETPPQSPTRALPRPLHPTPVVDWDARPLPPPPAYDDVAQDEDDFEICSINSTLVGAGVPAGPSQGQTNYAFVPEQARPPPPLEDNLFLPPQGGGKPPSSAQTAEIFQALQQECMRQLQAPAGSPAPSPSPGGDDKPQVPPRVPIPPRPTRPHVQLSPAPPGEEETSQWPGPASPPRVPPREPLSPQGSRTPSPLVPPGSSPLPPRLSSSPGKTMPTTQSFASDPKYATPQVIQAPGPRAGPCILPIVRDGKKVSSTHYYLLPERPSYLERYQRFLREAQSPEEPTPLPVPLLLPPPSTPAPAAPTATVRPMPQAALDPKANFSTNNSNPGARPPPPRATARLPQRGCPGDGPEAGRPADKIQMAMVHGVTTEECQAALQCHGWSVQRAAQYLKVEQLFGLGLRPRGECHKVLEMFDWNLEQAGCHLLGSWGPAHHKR

[7] = target: Eukaryotic elongation factor 2 kinase (Homo sapiens, UniProt O00418); assay: Inhibition of EEF2K assessed as [33P]gamma-ATP incorporation into substrate after 60 mins by gamma counting
[8] = target: Cyclin-dependent kinase 2/cyclin E1 (Homo sapiens, UniProt P24941); assay: Inhibition of CDK2/CYCE assessed as [33P]gamma-ATP incorporation into substrate after 60 mins by gamma counting; assay type: protein-complex assay
[9] = target: Cyclin-dependent kinase 1/cyclin B1 (Homo sapiens, UniProt P06493); assay: Inhibition of CDK1/CYCB assessed as [33P]gamma-ATP incorporation into substrate after 60 mins by gamma counting; assay type: protein-complex assay
[10] = target: Serine/threonine-protein kinase tousled-like 2 (Homo sapiens, UniProt Q86UE8); assay: Inhibition of TLK2 assessed as [33P]gamma-ATP incorporation into substrate after 60 mins by gamma counting
Ephrin type-A receptor 2 = Ephrin type-A receptor 2 (Homo sapiens, UniProt P29317); assay: Inhibition of EphA2 assessed as [33P]gamma-ATP incorporation into substrate after 60 mins by gamma counting
[11] = Intrinsic clearance in rat hepatocytes at 1 uM; assay type: ADME, cell-based, Liver, Hepatocyte
[12] = target: Vascular endothelial growth factor receptor 2 (Homo sapiens, UniProt P35968); assay: Inhibition of VEGFR2 assessed as [33P]gamma-ATP incorporation into substrate after 60 mins by gamma counting
Mus musculus [13] = assay: Toxicity in CD1 nu/nu mouse xenografted with human HCT116 cells assessed as reversible body weight loss at 45 mg/kg, iv BID administered on days 1 to 3 in weekly scheduling for 2 cycles measured on day 15; assay type: organism-based, HCT-116; parameters: dose 45 mg/kg, route intravenous; conditions: in vivo
Mus musculus [14] = assay: Toxicity in CD1 nu/nu mouse xenografted with human HCT116 cells assessed as reversible body weight loss at 90 mg/kg, po once daily administered on days 1 to 2 in weekly scheduling for 4 cycles measured on day 36; conditions: in vivo
[15] = target: Hepatocyte growth factor receptor (Homo sapiens, UniProt P08581); assay: Inhibition of MET assessed as [33P]gamma-ATP incorporation into substrate after 60 mins by gamma counting
[16] = target: Protein kinase C beta type (Homo sapiens, UniProt P05771); assay: Inhibition of PKCbeta assessed as [33P]gamma-ATP incorporation into substrate after 60 mins by gamma counting
Chain of Protein kinase C beta type (P05771 whole entry): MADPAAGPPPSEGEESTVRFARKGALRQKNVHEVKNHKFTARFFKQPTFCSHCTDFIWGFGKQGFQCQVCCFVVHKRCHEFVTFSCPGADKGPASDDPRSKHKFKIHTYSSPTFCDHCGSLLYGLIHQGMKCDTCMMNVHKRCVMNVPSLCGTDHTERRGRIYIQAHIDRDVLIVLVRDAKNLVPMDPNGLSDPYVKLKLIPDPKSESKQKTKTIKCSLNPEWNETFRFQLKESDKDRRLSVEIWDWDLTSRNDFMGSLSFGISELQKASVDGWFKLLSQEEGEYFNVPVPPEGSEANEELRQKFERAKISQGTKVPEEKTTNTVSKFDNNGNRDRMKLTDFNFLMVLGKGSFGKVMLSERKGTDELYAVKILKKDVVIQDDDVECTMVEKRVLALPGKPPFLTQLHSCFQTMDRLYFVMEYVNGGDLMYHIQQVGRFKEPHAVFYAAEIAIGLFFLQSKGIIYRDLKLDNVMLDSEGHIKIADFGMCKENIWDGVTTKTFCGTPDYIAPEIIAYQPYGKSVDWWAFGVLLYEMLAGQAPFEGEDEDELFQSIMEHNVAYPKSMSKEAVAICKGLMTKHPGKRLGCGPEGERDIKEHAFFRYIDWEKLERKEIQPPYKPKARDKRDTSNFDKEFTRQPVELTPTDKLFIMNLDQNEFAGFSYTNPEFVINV

[17] = target: Mitogen-activated protein kinase 1 (Homo sapiens, UniProt P28482); assay: Inhibition of ERK2 assessed as [33P]gamma-ATP incorporation into substrate after 60 mins by gamma counting
Chain of Mitogen-activated protein kinase 1 (P28482 whole entry): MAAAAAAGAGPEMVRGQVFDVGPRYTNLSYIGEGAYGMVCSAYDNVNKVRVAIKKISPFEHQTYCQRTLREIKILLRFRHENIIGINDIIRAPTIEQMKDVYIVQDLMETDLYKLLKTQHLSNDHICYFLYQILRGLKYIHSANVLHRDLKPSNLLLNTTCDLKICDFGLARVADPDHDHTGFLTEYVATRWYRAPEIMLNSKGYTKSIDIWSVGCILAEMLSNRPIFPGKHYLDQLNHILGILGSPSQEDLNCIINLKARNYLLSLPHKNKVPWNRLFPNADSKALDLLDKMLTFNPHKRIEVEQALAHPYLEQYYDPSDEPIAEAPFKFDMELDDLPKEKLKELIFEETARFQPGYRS

[18] = target: Tyrosine-protein kinase JAK3 (Homo sapiens, UniProt P52333); assay: Inhibition of JAK3 assessed as [33P]gamma-ATP incorporation into substrate after 60 mins by gamma counting
Insulin receptor = Insulin receptor (Homo sapiens, UniProt P06213); assay: Inhibition of IR assessed as [33P]gamma-ATP incorporation into substrate after 60 mins by gamma counting
Chain of Insulin receptor (P06213 28-758 limits assumed): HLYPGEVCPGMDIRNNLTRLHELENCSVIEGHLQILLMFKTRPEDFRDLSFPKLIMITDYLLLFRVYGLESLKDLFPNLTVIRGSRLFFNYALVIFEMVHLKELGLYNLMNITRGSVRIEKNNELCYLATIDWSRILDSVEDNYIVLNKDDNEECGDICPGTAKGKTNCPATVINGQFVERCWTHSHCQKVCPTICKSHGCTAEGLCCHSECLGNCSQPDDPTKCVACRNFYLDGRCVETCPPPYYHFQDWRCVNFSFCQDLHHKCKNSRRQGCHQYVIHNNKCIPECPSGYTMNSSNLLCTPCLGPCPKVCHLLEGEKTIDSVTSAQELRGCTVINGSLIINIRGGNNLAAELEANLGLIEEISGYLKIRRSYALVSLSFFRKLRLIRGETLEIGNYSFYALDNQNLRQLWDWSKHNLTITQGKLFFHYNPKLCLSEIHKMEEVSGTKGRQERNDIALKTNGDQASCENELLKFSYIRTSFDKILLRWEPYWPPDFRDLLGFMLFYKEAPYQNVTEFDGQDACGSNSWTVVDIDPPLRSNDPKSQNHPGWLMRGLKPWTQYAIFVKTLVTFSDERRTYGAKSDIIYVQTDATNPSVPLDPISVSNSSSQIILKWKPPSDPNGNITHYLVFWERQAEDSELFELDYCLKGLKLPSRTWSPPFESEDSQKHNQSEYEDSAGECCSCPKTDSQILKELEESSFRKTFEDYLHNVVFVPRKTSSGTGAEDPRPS
Chain of Insulin receptor (P06213 763-1382 limits assumed): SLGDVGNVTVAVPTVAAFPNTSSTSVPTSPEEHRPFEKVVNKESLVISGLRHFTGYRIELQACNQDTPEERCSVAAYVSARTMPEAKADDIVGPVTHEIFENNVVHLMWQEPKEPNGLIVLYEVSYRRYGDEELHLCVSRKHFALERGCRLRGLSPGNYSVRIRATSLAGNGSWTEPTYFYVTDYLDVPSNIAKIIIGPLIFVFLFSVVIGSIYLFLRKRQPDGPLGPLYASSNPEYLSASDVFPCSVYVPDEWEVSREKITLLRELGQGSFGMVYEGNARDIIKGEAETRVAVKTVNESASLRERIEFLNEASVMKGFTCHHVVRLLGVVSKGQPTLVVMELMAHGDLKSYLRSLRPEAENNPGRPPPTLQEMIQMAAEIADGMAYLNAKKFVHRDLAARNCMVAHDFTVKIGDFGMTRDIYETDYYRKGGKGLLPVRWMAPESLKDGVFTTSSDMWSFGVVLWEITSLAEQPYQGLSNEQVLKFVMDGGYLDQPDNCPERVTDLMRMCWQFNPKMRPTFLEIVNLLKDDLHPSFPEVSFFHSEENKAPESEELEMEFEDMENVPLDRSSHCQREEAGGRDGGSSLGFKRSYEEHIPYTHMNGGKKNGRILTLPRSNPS

Focal adhesion kinase 1 = Focal adhesion kinase 1 (Homo sapiens, UniProt Q05397); assay: Inhibition of FAK assessed as [33P]gamma-ATP incorporation into substrate after 60 mins by gamma counting
[19] = target: Inhibitor of nuclear factor kappa-B kinase subunit beta (Homo sapiens, UniProt O14920); assay: Inhibition of IKK2 assessed as [33P]gamma-ATP incorporation into substrate after 60 mins by gamma counting
Chain of Inhibitor of nuclear factor kappa-B kinase subunit beta (O14920 whole entry): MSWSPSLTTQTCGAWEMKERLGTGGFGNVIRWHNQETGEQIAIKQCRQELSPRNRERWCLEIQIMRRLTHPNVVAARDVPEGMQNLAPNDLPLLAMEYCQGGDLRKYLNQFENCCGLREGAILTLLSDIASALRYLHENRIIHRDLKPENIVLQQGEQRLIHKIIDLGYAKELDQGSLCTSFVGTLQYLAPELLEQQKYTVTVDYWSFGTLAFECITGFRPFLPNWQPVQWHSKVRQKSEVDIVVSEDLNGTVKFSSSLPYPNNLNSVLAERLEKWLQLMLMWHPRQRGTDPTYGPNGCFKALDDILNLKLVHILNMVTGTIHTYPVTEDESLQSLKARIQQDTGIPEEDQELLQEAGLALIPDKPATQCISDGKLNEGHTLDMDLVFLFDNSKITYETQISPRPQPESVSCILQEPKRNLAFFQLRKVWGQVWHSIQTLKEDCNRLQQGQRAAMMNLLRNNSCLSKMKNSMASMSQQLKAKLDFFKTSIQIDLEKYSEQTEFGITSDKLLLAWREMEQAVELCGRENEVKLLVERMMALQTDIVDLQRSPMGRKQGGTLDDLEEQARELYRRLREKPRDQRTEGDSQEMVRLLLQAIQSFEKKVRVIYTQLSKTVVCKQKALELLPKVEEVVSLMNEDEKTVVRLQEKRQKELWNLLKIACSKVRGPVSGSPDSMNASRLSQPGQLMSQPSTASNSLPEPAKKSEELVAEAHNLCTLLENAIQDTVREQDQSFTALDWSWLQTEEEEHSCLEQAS

HCT-116 [20] = assay: Antitumor activity against human HCT116 cells xenografted in CD1 nu/nu mouse assessed as tumor growth inhibition at 45 mg/kg, iv BID administered on days 1 to 3 in weekly scheduling for 2 cycles measured on day 24; assay type: functional; conditions: HCT-116, 576 h, read-out: TGI
[21] = target: Serine/threonine-protein kinase pim-1 (Homo sapiens, UniProt P11309); assay: Inhibition of PIM1 assessed as [33P]gamma-ATP incorporation into substrate after 60 mins by gamma counting
Chain of Serine/threonine-protein kinase pim-1 (P11309 whole entry): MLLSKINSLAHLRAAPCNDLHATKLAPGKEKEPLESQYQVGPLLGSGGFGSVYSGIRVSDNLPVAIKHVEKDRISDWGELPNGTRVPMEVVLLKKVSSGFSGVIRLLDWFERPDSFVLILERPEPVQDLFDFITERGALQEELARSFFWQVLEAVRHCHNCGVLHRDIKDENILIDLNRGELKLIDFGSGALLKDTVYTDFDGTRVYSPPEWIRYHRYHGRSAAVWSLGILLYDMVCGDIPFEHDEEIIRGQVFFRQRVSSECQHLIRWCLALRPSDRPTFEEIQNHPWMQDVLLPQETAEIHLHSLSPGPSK

[22] = target: Serine/threonine-protein kinase haspin (Homo sapiens, UniProt Q8TF76); assay: Inhibition of Haspin assessed as [33P]gamma-ATP incorporation into substrate after 60 mins by gamma counting
[23] = target: MAP kinase-interacting serine/threonine-protein kinase 2 (Homo sapiens, UniProt Q9HBH9); assay: Inhibition of MNK2 assessed as [33P]gamma-ATP incorporation into substrate after 60 mins by gamma counting
HCT-116 [24] = assay: Antitumor activity against human HCT116 cells xenografted in CD1 nu/nu mouse assessed as tumor growth inhibition at 120 mg/kg, po once daily administered on days 1 to 2 daily in weekly scheduling for 4 cycles measured on day 36; conditions: HCT-116, po, 864 h, read-out: TGI
[25] = target: Serine/threonine-protein kinase 26 (Homo sapiens, UniProt Q9P289); assay: Inhibition of MST4 assessed as [33P]gamma-ATP incorporation into substrate after 60 mins by gamma counting
Chain of Serine/threonine-protein kinase 26 (Q9P289 whole entry): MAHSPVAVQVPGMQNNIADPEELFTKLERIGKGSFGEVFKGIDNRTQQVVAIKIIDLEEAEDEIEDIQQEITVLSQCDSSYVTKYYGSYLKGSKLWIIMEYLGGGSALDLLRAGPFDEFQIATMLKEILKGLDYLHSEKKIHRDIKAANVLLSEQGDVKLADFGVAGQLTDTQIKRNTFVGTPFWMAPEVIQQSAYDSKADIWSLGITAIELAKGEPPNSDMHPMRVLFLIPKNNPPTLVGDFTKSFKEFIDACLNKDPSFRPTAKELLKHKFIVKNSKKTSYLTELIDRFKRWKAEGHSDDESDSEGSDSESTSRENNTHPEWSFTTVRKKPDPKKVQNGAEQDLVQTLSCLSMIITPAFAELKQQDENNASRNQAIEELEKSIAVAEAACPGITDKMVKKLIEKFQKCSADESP

CN1CCN(c2ccc(OC(F)(F)F)c(Nc3ncc4c(n3)-c3c(c(C(N)=O)nn3CCO)CC4)c2)CC1 [ONVANSERTIB]
IC50 [1]: 0.826 µM | IC50 [2]: > 10 µM | IC50 [3]: > 10 µM | inhibition in vivo at 90 mg/kg (HCT-116 [4]): 71% | Papp (Caco-2): permeable | IC50 [5]: > 10 µM | solubility [6]: 201 µM (≈ 107 µg/mL) | IC50 (Activated CDC42 kinase 1): > 10 µM | IC50 [7]: > 10 µM | IC50 [8]: > 10 µM | IC50 [9]: > 10 µM | IC50 [10]: > 10 µM | IC50 (Ephrin type-A receptor 2): > 10 µM | CLint scaled at 1 µM [11]: 165 mL/min/kg | IC50 [12]: > 10 µM | Activity (Mus musculus [13]): 16% | Activity (Mus musculus [14]): 10% | IC50 [15]: > 10 µM | IC50 [16]: > 10 µM | IC50 [17]: > 10 µM | IC50 [18]: > 10 µM | IC50 (Insulin receptor): > 10 µM | IC50 (Focal adhesion kinase 1): > 10 µM | IC50 [19]: > 10 µM | inhibition in vivo at 45 mg/kg (HCT-116 [20]): 83% | IC50 [21]: > 10 µM | IC50 [22]: > 10 µM | IC50 [23]: > 10 µM | inhibition in vivo at 120 mg/kg (HCT-116 [24]): 84% | IC50 [25]: > 10 µM
